{"source": "paper PMC4481117", "about": "(Molecular Pain, 2015)", "key": {"[1]": {"system": "mouse peritoneal macrophages", "settings": "cited from earlier work", "from_the_text": "Apart from their effects on κ-opioid receptors on neurons, Dyn A exerts numerous effects on leukocytes, particularly myeloid cells. […] Similar to other cationic peptides, Dyn A can exert some effects essential for host defense."}, "macrophage": {"system": "macrophage", "settings": "cited from earlier work", "from_the_text": "(§1) Apart from their effects on κ-opioid receptors on neurons, Dyn A exerts numerous effects on leukocytes, particularly myeloid cells. […] In addition, Dyn A (residues 1–13) and Dyn A (residues 1–9) stimulate ..."}, "macrophages": {"system": "macrophages", "settings": "cited from earlier work", "from_the_text": "as §1"}, "rat mast cells": {"system": "rat mast cells", "settings": "cited from earlier work", "from_the_text": "as §1"}, "[2]": {"system": "Mac-1 (Mac-1-HEK293 cells)", "assay": "Inhibition of adhesion of Mac-1-HEK293 cells to fibrinogen by soluble peptides", "format": "cell-based, Human", "settings": "soluble peptide 50 μM, 10 min at 22 °C; 2.5 μg/mL fibrinogen coating, 30 min at 37 °C; mean ± S.E., three experiments", "protocol": "Fig. 4 Effect of soluble Dyn A on Mac-1-mediated cell adhesion to fibrinogen. a (left ordinate), calcein-labeled Mac-1-HEK293 cells were preincubated with different concentrations of dynorphin A (black bar), dynorphin B (open bar) or control peptide (gray bar) for […] at 22 °C and added to the wells of microtiter plates coated with 2.5 μg/mL fibrinogen. Cells were allowed to adhere for 30 minutes at 37 °C before removing nonadherent cells. […] Data are expressed as a percentage of total cell fluorescence\nAdhesion assays were performed essentially as described previously. […] Cells were labeled with 10 μM calcein for 30 min at 37 °C and washed twice with Hanks’ Balanced salt solution (HBSS) containing 0.1 % BSA. Aliquots (100 μl) of labeled cells (5x10^5/ml) were added to each well and allowed to adhere for 30 min at 37 °C. The non-adherent cells were removed by two washes with PBS. Fluorescence was measured in a CytoFluorII fluorescence plate reader (Perceptive Biosystems, Framingham, MA). In inhibition experiments, cells were mixed with different concentrations of peptides, NIF or mAbs for 20 min at 22 °C before they were added to the wells coated with adhesive substrates. […] After aspirating the solution, labeled cells were added and cell adhesion was analyzed as above."}, "[3]": {"molecular_target": "T1, Mac-1 (Mac-1-expressing HEK293 cells) (Homo sapiens, UniProt P05107+P11215)", "T1 construct": "expressed in transfected cells", "assay": "Adhesion of Mac-1-HEK293 cells to immobilized peptide", "format": "cell-based", "settings": "30 min at 37 °C", "protocol": "For testing the role of glucosaminoglycans in cell adhesion, dynorphin A-coated wells were preincubated with 100 μl of 10 μg/ml of chondroitin sulfate A, chondroitin sulfate B and heparin. Aliquots (5x10^4cells) were added to the wells coated with 2 μM dynorphin A and adhesion was performed as described in A. Adhesion in the absence of Mac-1 inhibitors and glucosaminoglycans was assigned a value of 100 %. The data shown are the means ± S.E. from four separate experiments each with triplicate measurements. d , microtiter plate wells were coated with different concentrations of dynorphin B and adhesion of Mac-1-expressing and wild-type HEK293 cells was determined as described in A. The data shown are means of triplicate determinations, and error bars represent S.E. The figure is representative of 5 experiments. e. calcein-labeled Mac-1-HEK293 cells were preincubated without or with 10 μg/ml of mAb 44a and heparin, added to the wells coated with 20 μM of dynorphin B and adhesion was performed as described in A. Adhesion in the absence of inhibitors was assigned a value of 100 %.\nAdhesion assays were performed essentially as described previously. […] Cells were labeled with 10 μM calcein for 30 min at 37 °C and washed twice with Hanks’ Balanced salt solution (HBSS) containing 0.1 % BSA. Aliquots (100 μl) of labeled cells (5x10^5/ml) were added to each well and allowed to adhere for 30 min at 37 °C. The non-adherent cells were removed by two washes with PBS. Fluorescence was measured in a CytoFluorII fluorescence plate reader (Perceptive Biosystems, Framingham, MA). In inhibition experiments, cells were mixed with different concentrations of peptides, NIF or mAbs for 20 min at 22 °C before they were added to the wells coated with adhesive substrates. In a separate set of experiments, after coating plates with dynorphins and post-coating with 1 % PVP, plates were incubated with 100 μl of 10 μg/ml chondroitin sulfate A, chondroitin sulfate B, or heparin for 20 min at 22 °C. After aspirating the solution, labeled cells were added and cell adhesion was analyzed as above."}, "Mac-1-HEK293 cells": {"system": "Mac-1-HEK293 cells", "assay": "Translocation of Dyn A into Mac-1-HEK293 cells (immunolabeling)", "format": "cell-based, Human", "settings": "40 min at 37 °C", "protocol": "Fig. 5 Translocation of Dyn A into cells. Mac-1-expressing (a) and wild-type HEK293 (b) cells were incubated with 20 μM and 100 μM of Dyn A for 40 min at 37 °C, fixed, permeabilized and incubated with anti-dynorphin antibodies followed by Alexa Fluor 488-conjugated secondary goat anti-rabbit antibodies. No labeling was detected in the absence of primary antibody. c, Enlarged images of Dyn A-accumulated Mac-1- and wild-type HEK cells shown in a and b. d, Quantification of fluorescent cells shown in a and b\nMac-1-HEK 293 and wild-type HEK 293 cells were incubated for 10 min with different concentrations (0–100 μM) of Dyn A and allowed to adhere to glass coverslips coated with poly-Lysine for 30 min. Adherent cells were fixed in 2 % paraformaldehyde solution, permeabilized with 0.1 % Tween-20, and blocked with 10 % normal goat serum plus 1 % BSA. The coverslips were incubated with 5 μg/ml polyclonal anti-Dyn A antibody followed by an secondary goat anti-rabbit antibody conjugated to Alexa Fluor 488 (1:1000). Images were taken using a Leica DM 4000B microscope (Leica, Buffalo Grove, IL)."}, "cells": {"system": "cells", "settings": "cited from earlier work"}}, "note": "pEC50: −log10 of the molar value."}
{"smiles": "CC[C@H](C)[C@H](NC(=O)[C@H](CCCNC(=N)N)NC(=O)[C@H](CCCNC(=N)N)NC(=O)[C@H](CC(C)C)NC(=O)[C@H](Cc1ccccc1)NC(=O)CNC(=O)CNC(=O)[C@@H](N)Cc1ccc(O)cc1)C(=O)N[C@@H](CCCNC(=N)N)C(=O)N1CCC[C@H]1C(=O)N[C@@H](CCCCN)C(=O)N[C@@H](CC(C)C)C(=O)N[C@@H](CCCCN)C(=O)N[C@@H](Cc1c[nH]c2ccccc12)C(=O)N[C@@H](CC(=O)O)C(=O)N[C@@H](CC(N)=O)C(=O)N[C@@H](CCC(N)=O)C(=O)O", "note": "[Dyn A]", "values": [{"measurement": "Phagocytosis by mouse peritoneal macrophages", "setting": "[1]", "value": "enhance phagocytosis by mouse peritoneal macrophages"}, {"measurement": "Superoxide generation", "setting": "macrophage", "value": "stimulate macrophage superoxide generation"}, {"measurement": "Zymosan-triggered oxidative burst", "setting": "macrophage", "value": "enhance macrophage zymosan-triggered oxidative burst"}, {"measurement": "Nitric oxide release", "setting": "macrophage; induced by LPS and IFN-γ", "value": "decrease nitric oxide release induced by LPS and IFN-γ"}, {"measurement": "Secretion of IL-1 and TNFα", "setting": "macrophages", "value": "increase secretion of IL-1 and TNFα by macrophages"}, {"measurement": "Degranulation and histamine release", "setting": "rat mast cells", "value": "induce degranulation and histamine release from rat mast cells"}, {"measurement": "Inhibition of adhesion to fibrinogen", "setting": "[2]", "value": "67 ± 2", "unit": "%"}, {"measurement": "Coating concentration giving saturable adhesion", "setting": "[3]; Mac-1-HEK293 cells", "value": "~ 2 μM"}, {"measurement": "Adhesion of Mac-1-HEK293 cells (in words)", "setting": "[3]; coated wells, calcein-labeled cells", "value": "strongly adhered"}, {"measurement": "pEC50", "setting": "[3]; read-out: Coating concentration required to reach 50 % of maximal cell adhesion, Mac-1-HEK293 cells, fluorescence of calcein", "value": "6.30 to 6.70"}, {"measurement": "Localization of Dyn A in Mac-1-HEK293 cells", "setting": "Mac-1-HEK293 cells; 20 μM Dyn A", "value": "primarily associated with the cell periphery"}, {"measurement": "Number of Mac-1-HEK293 cells accumulating Dyn A vs wild-type", "setting": "Mac-1-HEK293 cells; Dyn A, anti-dynorphin antibodies", "value": "significantly smaller number of Mac-1-HEK293 cells accumulated Dyn A"}, {"measurement": "Cell entry", "setting": "cells", "value": "enters the cells"}]}
